Assay results published in PubChem BioAssay AID248 (DTP/NCI, 2004).
“And” between values parts separate entries of the source, which are not always exact repeats. Identical values can stand only once. Inconclusive results and toxic doses are left out. No stated cut-off is given here; in the data, active means T/C of 150% or more; inactive means T/C below 125%.

Tested on: L1210 leukemia ip in BDF1 mice, survival T/C
Test: NCI In Vivo Anticancer Drug Screen. Data for tumor model L1210 Leukemia (intraperitoneal) in B6D2F1 (BDF1) mice
Details: higher = longer survival
Procedure, shortened: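 Ratio derived from survival: compound-dosed mice over vehicle-dosed mice, all bearing a transplantable tumor.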

[1] = endpoint: mean survival time, dose: 100.0 mg/kg/injection, schedule: Q04DX003 (ip), vehicle: saline with Tween-80
[2] = endpoint: mean survival time, dose: 200.0 mg/kg/injection, schedule: Q04DX003 (ip), vehicle: saline with Tween-80
[3] = endpoint: mean survival time, dose: 400.0 mg/kg/injection, schedule: Q04DX003 (ip), vehicle: saline with Tween-80
[4] = endpoint: mean survival time, dose: 100.0 mg/kg/injection, schedule: Q01DX001 (ip), vehicle: other
[5] = endpoint: mean survival time, dose: 200.0 mg/kg/injection, schedule: Q01DX001 (ip), vehicle: other
[6] = endpoint: mean survival time, dose: 400.0 mg/kg/injection, schedule: Q01DX001 (ip), vehicle: other
[7] = endpoint: mean survival time, dose: 25.0 mg/kg/injection, schedule: Q01DX009 (ip), vehicle: Klucel (hydroxypropylcellulose) (HPC)
[8] = endpoint: mean survival time, dose: 50.0 mg/kg/injection, schedule: Q01DX009 (ip), vehicle: Klucel (hydroxypropylcellulose) (HPC)
[9] = endpoint: mean survival time, dose: 100.0 mg/kg/injection, schedule: Q01DX009 (ip), vehicle: Klucel (hydroxypropylcellulose) (HPC)
[10] = endpoint: mean survival time, dose: 100.0 mg/kg/injection, schedule: Q04DX003 (ip), vehicle: Klucel (hydroxypropylcellulose) (HPC)
[11] = endpoint: mean survival time, dose: 200.0 mg/kg/injection, schedule: Q04DX003 (ip), vehicle: Klucel (hydroxypropylcellulose) (HPC)
[12] = endpoint: mean survival time, dose: 400.0 mg/kg/injection, schedule: Q04DX003 (ip), vehicle: Klucel (hydroxypropylcellulose) (HPC)
[13] = endpoint: mean survival time, dose: 100.0 mg/kg/injection, schedule: Q01DX009 (ip), vehicle: saline with Tween-80
[14] = endpoint: mean survival time, dose: 200.0 mg/kg/injection, schedule: Q01DX009 (ip), vehicle: saline with Tween-80
[15] = endpoint: mean survival time, dose: 400.0 mg/kg/injection, schedule: Q01DX009 (ip), vehicle: saline with Tween-80
[16] = endpoint: mean survival time, dose: 200.0 mg/kg/injection, schedule: Q01DX009 (ip), vehicle: Klucel (hydroxypropylcellulose) (HPC)
[17] = endpoint: mean survival time, dose: 100.0 mg/kg/injection, schedule: Q04DX002 (ip), vehicle: saline with Tween-80
[18] = endpoint: mean survival time, dose: 200.0 mg/kg/injection, schedule: Q04DX002 (ip), vehicle: saline with Tween-80
[19] = endpoint: mean survival time, dose: 400.0 mg/kg/injection, schedule: Q04DX002 (ip), vehicle: saline with Tween-80

Measured: T/C

N=C(N)c1cccc(NC(=O)c2cccc(C(=O)Nc3cccc(C(=N)N)c3)c2)c1
inactive: endpoint: mean survival time, dose: 15.0 mg/kg/injection, schedule: Q01DX Z (ip), vehicle: saline 95 % of control | endpoint: mean survival time, dose: 30.0 mg/kg/injection, schedule: Q01DX Z (ip), vehicle: saline 98 % of control | endpoint: mean survival time, dose: 60.0 mg/kg/injection, schedule: Q01DX Z (ip), vehicle: saline 98 % of control | endpoint: mean survival time, dose: 120.0 mg/kg/injection, schedule: Q01DX Z (ip), vehicle: saline 93 % of control | endpoint: mean survival time, dose: 125.0 mg/kg/injection, schedule: Q01DX Z (ip), vehicle: water 96 % of control | endpoint: mean survival time, dose: 250.0 mg/kg/injection, schedule: Q01DX Z (ip), vehicle: water 98 % of control | endpoint: mean survival time, dose: 500.0 mg/kg/injection, schedule: Q01DX Z (ip), vehicle: water 104 % of control

CC(CO)(CO)N=Cc1ccccc1
inactive: endpoint: mean survival time, dose: 50.0 mg/kg/injection, schedule: Q01DX001 (ip), vehicle: saline 112 % of control | endpoint: mean survival time, dose: 100.0 mg/kg/injection, schedule: Q01DX001 (ip), vehicle: saline 112 % of control | endpoint: mean survival time, dose: 200.0 mg/kg/injection, schedule: Q01DX001 (ip), vehicle: saline 100 % of control | endpoint: mean survival time, dose: 400.0 mg/kg/injection, schedule: Q01DX001 (ip), vehicle: saline 100 % of control

CC1(Br)Cc2ccccc2C1=O (stereo not given)
inactive: [1] 107 % of control | [2] 94 % of control | [3] 103 % of control

COc1ccc2ccc(=O)oc2c1CC=C(C)C
inactive: [4] 98 % of control | [5] 93 % of control | [6] 101 % of control

O=C(O)CCC(=O)c1ccc2sc3ccccc3c2c1
inactive: [7] 106 % of control | [8] 100 % of control | [9] 97 % of control and 106 % of control | [10] 98 % of control | [11] 103 % of control | [12] 89 % of control

O=C(/C=C/c1ccc(F)cc1)c1ccc(Cl)cc1
inactive: [13] 101 % of control | [1] 96 % of control | [14] 92 % of control | [2] 90 % of control | [15] 103 % of control | [3] 94 % of control

C[N+](C)(C)CSc1ccccc1-n1cccc1
inactive: endpoint: mean survival time, dose: 12.5 mg/kg/injection, schedule: Q01DX009 (ip), vehicle: Klucel (hydroxypropylcellulose) (HPC) 112 % of control | endpoint: mean survival time, dose: 12.5 mg/kg/injection, schedule: Q04DX003 (ip), vehicle: Klucel (hydroxypropylcellulose) (HPC) 103 % of control | [7] 103 % of control | endpoint: mean survival time, dose: 25.0 mg/kg/injection, schedule: Q04DX003 (ip), vehicle: Klucel (hydroxypropylcellulose) (HPC) 92 % of control | [8] 110 % of control | endpoint: mean survival time, dose: 50.0 mg/kg/injection, schedule: Q04DX003 (ip), vehicle: Klucel (hydroxypropylcellulose) (HPC) 97 % of control

CN1CCCN(CCOC(c2ccccc2)c2ccccc2)CC1
inactive: endpoint: mean survival time, dose: 55.0 mg/kg/injection, schedule: Q01DX Z (ip), vehicle: methylcellulose (MC) 93 % of control | endpoint: mean survival time, dose: 83.0 mg/kg/injection, schedule: Q01DX Z (ip), vehicle: methylcellulose (MC) 92 % of control

Cc1ccc(N=C(N)NC#N)cc1C
inactive: [1] 102 % of control | [2] 102 % of control | [3] 102 % of control

Cc1ccc2c(c1)SN(CN1C(=O)c3ccccc3C1=O)N2
inactive: [9] 103 % of control | [10] 94 % of control | [16] 93 % of control | [11] 96 % of control | endpoint: mean survival time, dose: 400.0 mg/kg/injection, schedule: Q01DX009 (ip), vehicle: Klucel (hydroxypropylcellulose) (HPC) 90 % of control | [12] 91 % of control

O=C(Nc1ccc(Cl)cc1C(F)(F)F)OCCOc1ccccc1Cl
inactive: [13] 91 % of control | [14] 95 % of control | [15] 93 % of control

O=C(Nc1cccc(C(=O)O)c1)Nc1ccccc1F
inactive: [8] 93 % of control | [9] 107 % of control | [16] 93 % of control

CCCCCCCCCCCCCCCCCCCOc1ccc(OCCCCCCCC)cc1
inactive: [1] 94 % of control | [2] 92 % of control | [3] 94 % of control

O=C(N[C@H](CO)[C@H](O)c1ccc([N+](=O)[O-])cc1)C(Cl)Cl
inactive: endpoint: mean survival time, dose: 316.0 mg/kg/injection, schedule: Q01DX001 (ip), vehicle: carboxymethylcellulose (CMC) 106 % of control | endpoint: mean survival time, dose: 475.0 mg/kg/injection, schedule: Q01DX001 (ip), vehicle: carboxymethylcellulose (CMC) 115 % of control | endpoint: mean survival time, dose: 720.0 mg/kg/injection, schedule: Q01DX001 (ip), vehicle: carboxymethylcellulose (CMC) 113 % of control | endpoint: median survival time, dose: 274.4 mg/kg/injection, schedule: Q01DX001 (ip), vehicle: saline 105 % of control | endpoint: median survival time, dose: 392.0 mg/kg/injection, schedule: Q01DX001 (ip), vehicle: saline 100 % of control and 101 % of control | endpoint: median survival time, dose: 560.0 mg/kg/injection, schedule: Q01DX001 (ip), vehicle: saline 93 % of control and 94 % of control and 95 % of control | endpoint: median survival time, dose: 560.0 mg/kg/injection, schedule: Q03DX001 (ip), vehicle: saline 88 % of control | endpoint: median survival time, dose: 800.0 mg/kg/injection, schedule: Q01DX001 (ip), vehicle: saline 99 % of control and 100 % of control and 102 % of control | endpoint: median survival time, dose: 800.0 mg/kg/injection, schedule: Q03DX001 (ip), vehicle: saline 100 % of control

COc1ccc(Cl)cc1NC(=O)COc1ccccc1
inactive: endpoint: mean survival time, dose: 100.0 mg/kg/injection, schedule: Q01DX001 (ip), vehicle: saline with Tween-80 89 % of control | [13] 102 % of control | [17] 97 % of control and 98 % of control | endpoint: mean survival time, dose: 200.0 mg/kg/injection, schedule: Q01DX001 (ip), vehicle: saline with Tween-80 92 % of control | [14] 98 % of control and 102 % of control | [18] 94 % of control and 97 % of control | endpoint: mean survival time, dose: 400.0 mg/kg/injection, schedule: Q01DX001 (ip), vehicle: saline with Tween-80 101 % of control | [15] 93 % of control and 102 % of control | [19] 94 % of control and 101 % of control

CC1(C)OC2C3COC(O3)C(O)C2O1 (stereo not given)
inactive: [17] 99 % of control | [18] 99 % of control | [19] 96 % of control

CC(O)(C(N)=O)c1cc(Cl)ccc1Cl (stereo not given)
inactive: endpoint: mean survival time, dose: 100.0 mg/kg/injection, schedule: Q01DX009 (ip), vehicle: water 94 % of control | endpoint: mean survival time, dose: 100.0 mg/kg/injection, schedule: Q04DX003 (ip), vehicle: water 90 % of control | endpoint: mean survival time, dose: 200.0 mg/kg/injection, schedule: Q01DX009 (ip), vehicle: water 96 % of control | endpoint: mean survival time, dose: 200.0 mg/kg/injection, schedule: Q04DX003 (ip), vehicle: water 95 % of control | endpoint: mean survival time, dose: 400.0 mg/kg/injection, schedule: Q01DX009 (ip), vehicle: water 107 % of control | endpoint: mean survival time, dose: 400.0 mg/kg/injection, schedule: Q04DX003 (ip), vehicle: water 96 % of control

Cc1cc(N=Nc2ccc([N+](=O)[O-])cc2)ccc1N(C)C
inactive: [4] 97 % of control | [5] 101 % of control | [6] 89 % of control
